Like-named read-outs stand apart in the source and are kept apart here.
Experiments:
New Zealand rabbits = experiment: Blood counts (hemogram) in rabbits; conditions: iv, 3 cycles every 7 days;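 further: compound given into the marginal ear vein under ketamine-xylazine-acepromazine anesthesia, blood drawn from the ear central artery after sedation, seven samplings from one day before to day 20 after first dose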
Procedure: The intravenous administration was performed in the marginal ear vein and previously rabbits underwent anesthesia intramuscular injection by a combination of Ketamine-Xylazine-Acepromazine (2.4 mg/kg acepromazine, 48 mg/kg Ketamine and 5 mg/kg xylazine)
Blood samples were taken from the central artery of the ear, after sedation. A total of 7 samples were taken for each rabbit, and samples were taken a day before the first doses (−1), and on days 1, 6, 8, 13, 15 and 20 after the first dose.

[1] = Pharmacokinetics of Docetaxel in plasma of rabbits; format: in vivo, New Zealand rabbits; conditions: iv, 2.5 mg/kg DCX; for half-life: New Zealand, rabbit, 2.5 mg/kg
Procedure: Changes in plasma drug concentration reflect changes in drug concentrations at the receptor site, as well as in other tissues.
The formulations were administered intravenously at doses equivalent to 2.5 mg/kg of DCX in each. […] Blood samples were taken at 0.5, 2, 8, and 24 hours from each animal in Groups A and C, and at 1, 4, 12, and 32 hours for each animal in Groups B and D. Then, the samples were pre-treated for analysis—the proteins were precipitated with acetonitrile and then extracted with a solid phase (SPE), evaporated, and resuspended for analysis. […] Any adjustment of the experimental data was performed by weighted nonlinear regression of at least squares using a bi-exponential descriptive model.
For this study, kd and kel were interpreted as the first order apparent distribution and elimination constants, respectively, and C1 and C2 were the coefficients of the adjustment model.
From the estimated values of C1, kd, C2, and kel, the following pharmacokinetic parameters were calculated, as shown in Table 10 below.
Clearance (CI) refers to the volume of blood that has completely cleared of the drug/unit time when it passes through a clearing organ.

For `CC(=O)O[C@@]12CO[C@@H]1C[C@H](O)[C@@]1(C)C(=O)[C@H](O)C3=C(C)[C@@H](OC(=O)[C@H](O)[C@@H](NC(=O)OC(C)(C)C)c4ccccc4)C[C@@](O)([C@@H](OC(=O)c4ccccc4)[C@H]21)C3(C)C` [TAXOTERE, Docetaxel], which Hematocrit (New Zealand rabbits; Sample 1 (day -1)) is on record?
Its Hematocrit is 40%.

And the MCH (New Zealand rabbits; Sample 1 (day -1))?
The MCH was 20 pg.

And the MCHC (New Zealand rabbits; Sample 1 (day -1))?
The MCHC was 28 g/dL.

And the MCV (New Zealand rabbits; Sample 1 (day -1))?
Its MCV is 71 fL.

And the “Red Cells” value (New Zealand rabbits; Sample 1 (day -1))?
The value was 5.7 × 10^6/mm^3.

And the “White Blood Cells” value (New Zealand rabbits; Sample 1 (day -1))?
Its value is 6720 /mm.

And the Hematocrit (New Zealand rabbits; Sample 2 (day 1))?
The Hematocrit was 37%.

And the MCH (New Zealand rabbits; Sample 2 (day 1))?
Its MCH is 20 pg.

And the MCHC (New Zealand rabbits; Sample 2 (day 1))?
Its MCHC is 28 g/dL.

And the MCV (New Zealand rabbits; Sample 2 (day 1))?
The MCV was 71 fL.

And the “Red Cells” value (New Zealand rabbits; Sample 2 (day 1))?
Its value is 5.2 × 10^6/mm^3.

And the “White Blood Cells” value (New Zealand rabbits; Sample 2 (day 1))?
Its value is 6175 /mm.

And the Hematocrit (New Zealand rabbits; Sample 3 (day 6))?
The Hematocrit was 37%.

And the MCH (New Zealand rabbits; Sample 3 (day 6))?
The MCH was 20 pg.

What about the MCHC (New Zealand rabbits; Sample 3 (day 6)) of the same molecule?
Its MCHC is 28 g/dL.

What about the MCV (New Zealand rabbits; Sample 3 (day 6)) of the same molecule?
The MCV was 70 fL.

And the “Red Cells” value (New Zealand rabbits; Sample 3 (day 6))?
Its value is 5.2 × 10^6/mm^3.

And the “White Blood Cells” value (New Zealand rabbits; Sample 3 (day 6))?
Its value is 3800 /mm.

What about the Hematocrit (New Zealand rabbits; Sample 4 (day 8)) of the same molecule?
The Hematocrit was 39%.

And the MCH (New Zealand rabbits; Sample 4 (day 8))?
Its MCH is 19 pg.

And the MCHC (New Zealand rabbits; Sample 4 (day 8))?
The MCHC was 25 g/dL.

And the MCV (New Zealand rabbits; Sample 4 (day 8))?
Its MCV is 69 fL.

What about the “Red Cells” value (New Zealand rabbits; Sample 4 (day 8)) of the same molecule?
The value was 5.6 × 10^6/mm^3.

What about the “White Blood Cells” value (New Zealand rabbits; Sample 4 (day 8)) of the same molecule?
The value was 3500 /mm.

And the Hematocrit (New Zealand rabbits; Sample 5 (day 13))?
Its Hematocrit is 24%.

What about the MCH (New Zealand rabbits; Sample 5 (day 13)) of the same molecule?
The MCH was 19 pg.

What about the MCHC (New Zealand rabbits; Sample 5 (day 13)) of the same molecule?
Its MCHC is 28 g/dL.

And the MCV (New Zealand rabbits; Sample 5 (day 13))?
Its MCV is 69 fL.

What about the “Red Cells” value (New Zealand rabbits; Sample 5 (day 13)) of the same molecule?
Its value is 3.9 × 10^6/mm^3.

What about the “White Blood Cells” value (New Zealand rabbits; Sample 5 (day 13)) of the same molecule?
The value was 4000 /mm.

What about the Hematocrit (New Zealand rabbits; Sample 6 (day 15)) of the same molecule?
The Hematocrit was 31%.

And the MCH (New Zealand rabbits; Sample 6 (day 15))?
The MCH was 20 pg.

What about the MCHC (New Zealand rabbits; Sample 6 (day 15)) of the same molecule?
The MCHC was 29 g/dL.

What about the MCV (New Zealand rabbits; Sample 6 (day 15)) of the same molecule?
Its MCV is 70 fL.

And the “Red Cells” value (New Zealand rabbits; Sample 6 (day 15))?
Its value is 4.4 × 10^6/mm^3.

And the “White Blood Cells” value (New Zealand rabbits; Sample 6 (day 15))?
Its value is 5500 /mm.

And the Hematocrit (New Zealand rabbits; Sample 7 (day 20))?
The Hematocrit was 19%.

And the MCH (New Zealand rabbits; Sample 7 (day 20))?
Its MCH is 20 pg.

What about the MCHC (New Zealand rabbits; Sample 7 (day 20)) of the same molecule?
Its MCHC is 44 g/dL.

And the MCV (New Zealand rabbits; Sample 7 (day 20))?
The MCV was 45 fL.

What about the “Red Cells” value (New Zealand rabbits; Sample 7 (day 20)) of the same molecule?
The value was 4.2 × 10^6/mm^3.

What about the “White Blood Cells” value (New Zealand rabbits; Sample 7 (day 20)) of the same molecule?
The value was 2900 /mm.

And the half-life ([1]; read-out: t1/2e1: Elimination half-life (converted))?
Its half-life is 19.7 h.

What about the half-life ([1]; read-out: t1/2d: Distribution half-life (converted)) of the same molecule?
Its half-life is 0.54 h.

What about the “ABC0-∞: Area under the curve from time zero to infinity” value [1] of the same molecule?
Its value is 1.152 µg·h/mL.

And the “ABCex: Percentage of area under the curve extrapolated to infinity” value [1]?
The value was 26.0%.

And the “ABCtz-∞: Area under the curve from the last sampling time to infinity” value [1]?
Its value is 0.299 µg·h/mL.

What about the “C1: Coefficient of the first exponential term” value [1] of the same molecule?
Its value is 295.1 ng/mL.

And the “C2: Coefficient of the second exponential term” value [1]?
Its value is 32.5 ng/mL.

What about the “Cz: Coefficient of last exponential term” value [1] of the same molecule?
Its value is 10.52 ng/mL.

What about the “kd: first order apparent distribution constant” value [1] of the same molecule?
Its value is 0.000356 s⁻¹.

And the “ke1: first order apparent elimination constant” value [1]?
The value was 0.035 h⁻¹.
